Results from ChEMBL document CHEMBL1201862, “PubChem BioAssay data set” (2004).
The source made the active and inactive calls.

What was measured:
[1] = molecular target: T1, Fructose-bisphosphate aldolase (Mycobacterium tuberculosis, UniProt P9WQA3); test: Fluorescence-based biochemical high throughput dose response assay for inhibitors of the fructose-bisphosphate aldolase (FBA) of M. tuberculosis.; assay type: functional
T1 sequence (P9WQA3 whole entry): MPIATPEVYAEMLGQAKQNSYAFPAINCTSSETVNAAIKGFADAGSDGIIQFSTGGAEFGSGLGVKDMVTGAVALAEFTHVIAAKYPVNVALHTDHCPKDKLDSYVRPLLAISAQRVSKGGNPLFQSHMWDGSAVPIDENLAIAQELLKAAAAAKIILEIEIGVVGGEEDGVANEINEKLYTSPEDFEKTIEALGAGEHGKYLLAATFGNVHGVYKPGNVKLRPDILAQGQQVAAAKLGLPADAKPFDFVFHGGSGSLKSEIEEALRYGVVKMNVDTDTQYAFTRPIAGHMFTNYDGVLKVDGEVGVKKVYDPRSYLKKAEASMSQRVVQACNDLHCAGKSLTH

[2] = HepG2 cell cytotoxicity, dose response, cytotoxicity control, plate reader, cherry-pick, antagonist series (AID 743416); assay type: functional, cell-based
[3] = HEK293 cell cytotoxicity, dose response, cytotoxicity control, plate reader, cherry-picked samples (AID 743446); assay type: functional, cell-based
[4] = MC4R antagonists, dose response, counter-screen for LGR2 antagonist project, cell-based, plate reader, cherry pick (AID 743444); assay type: functional;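 further: transfected HEK 293 cells stimulated with alpha-MSH peptide; potency of inhibitors of the alpha-MSH evoked signal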
[5] = LGR2 antagonists, dose response, cell-based, HEK293, CRE-luciferase reporter, cherry pick, set 2 (AID 743343); assay type: functional;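 further: transfected cells were stimulated with diluted bursicon conditioned medium after compound addition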
[6] = A549 cell cytotoxicity, dose response, cytotoxicity control, plate reader, cherry-pick, antagonist series (AID 743412); assay type: functional, cell-based
[7] = system: Vero; test: host cell cytotoxicity of antiviral hits, dose response, cytotoxicity control for West Nile virus antiviral project, secondary assay (AID 1650); assay type: functional; details: Chlorocebus sabaeus
[8] = inhibitors of intracellular T. cruzi replication, confirmation, NIH3T3 host cells, beta-gal luminescence (AID 2044); assay type: functional, cell-based;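 further: intracellular parasites grown in NIH/3T3 mouse fibroblasts as host cells; luminescent beta-galactosidase reporter signal from transgenic T. cruzi replicating inside host cells; inhibitors lower the luminescence signal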
[9] = cells
[10] = cytotoxicity toward NIH3T3 fibroblasts, dose response, counter-screen, cell-based, ATP luminescence, mouse fibroblasts (AID 2010); assay type: functional;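 further: cells exposed to compound for about 90 hours before reading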
[11] = cells; assay type: functional, cell-based
[12] = cells; assay type: functional, cell-based; remark: listed apart in the source
[13] = P. falciparum Dd2 growth inhibitors, dose response, SYBR Green, cherry-picked samples (AID 1159567); assay type: functional, cell-based
[14] = HepG2 cell cytotoxicity, dose response, cytotoxicity control, cherry-picked samples (AID 1159577); assay type: functional, cell-based
[15] = molecular target: T2, DNA repair and recombination protein RAD54-like (Homo sapiens, UniProt Q92698); test: inhibitors of human RAD54 branch migration, confirmation, biochemical, fluorescence, cherry-picked samples, dose series (AID 651657); assay type: functional
T2 sequence (Q92698 whole entry): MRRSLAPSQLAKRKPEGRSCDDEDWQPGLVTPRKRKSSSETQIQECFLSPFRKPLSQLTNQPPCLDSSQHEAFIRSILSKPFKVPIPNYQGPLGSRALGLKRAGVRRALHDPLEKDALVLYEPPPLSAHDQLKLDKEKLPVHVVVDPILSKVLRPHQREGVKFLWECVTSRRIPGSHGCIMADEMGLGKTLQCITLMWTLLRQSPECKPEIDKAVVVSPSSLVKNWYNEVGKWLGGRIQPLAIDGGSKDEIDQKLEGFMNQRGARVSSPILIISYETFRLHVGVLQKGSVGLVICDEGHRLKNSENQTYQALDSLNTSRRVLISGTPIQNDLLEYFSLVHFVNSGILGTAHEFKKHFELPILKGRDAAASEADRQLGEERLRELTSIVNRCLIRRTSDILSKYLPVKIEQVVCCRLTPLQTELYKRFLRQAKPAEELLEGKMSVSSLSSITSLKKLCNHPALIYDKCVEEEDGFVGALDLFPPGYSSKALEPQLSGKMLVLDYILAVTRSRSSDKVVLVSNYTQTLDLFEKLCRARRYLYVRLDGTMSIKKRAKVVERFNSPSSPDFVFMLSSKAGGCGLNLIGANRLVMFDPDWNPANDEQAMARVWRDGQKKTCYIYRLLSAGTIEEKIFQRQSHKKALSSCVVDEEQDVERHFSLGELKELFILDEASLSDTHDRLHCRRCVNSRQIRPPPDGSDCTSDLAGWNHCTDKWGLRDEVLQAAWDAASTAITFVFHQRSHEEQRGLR

[16] = molecular target: T3, DNA repair protein RAD52 homolog (Homo sapiens, UniProt P43351); assay type: functional, biochemical
T3 sequence (P43351 whole entry): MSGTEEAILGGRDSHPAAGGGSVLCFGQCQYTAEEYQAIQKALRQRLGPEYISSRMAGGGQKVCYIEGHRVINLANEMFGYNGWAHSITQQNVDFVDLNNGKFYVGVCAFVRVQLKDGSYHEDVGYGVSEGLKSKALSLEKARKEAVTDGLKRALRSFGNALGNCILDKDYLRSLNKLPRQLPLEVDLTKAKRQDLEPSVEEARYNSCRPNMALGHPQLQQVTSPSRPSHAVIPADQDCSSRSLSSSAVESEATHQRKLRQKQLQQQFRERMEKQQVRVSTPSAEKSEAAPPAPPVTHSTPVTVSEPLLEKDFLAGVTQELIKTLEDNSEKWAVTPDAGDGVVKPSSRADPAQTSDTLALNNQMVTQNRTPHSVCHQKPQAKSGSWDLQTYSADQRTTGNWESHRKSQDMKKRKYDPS

SMILES: COC(=O)CN(c1ccc2c(c1)OCCO2)S(=O)(=O)c1ccccc1
- IC50 [1]: > 9.99 µM (inactive)

SMILES: N#C[C@@H]1[C@H](c2ccc(C#Cc3ccccc3F)cc2)[C@H](CO)N1C(=O)C1CCCCC1
- AC50 [2]: 2.67 µM (active)
- AC50 [3]: 14.3 µM (active)
- AC50 [4]: 27.5 µM (active)
- AC50 [5]: 20 µM (active)
- AC50 [6]: 17.6 µM (active)

SMILES: COC1CC(OC2CCC3(C)C(CCC4C3CCC3(C)C(C5=CC(=O)OC5)C(OC(C)=O)CC43O)C2)OC(C)C1OC1OC(COC2OC(CO)C(O)C(O)C2O)C(O)C(O)C1O (stereo not given)
- CC50 [7]: 4.14 µM (active)

SMILES: COc1ccc(CN2CCCC(N3CCN(c4cccc(Cl)c4)CC3)C2)cc1OC (stereo not given)
- EC50 [8]: < 0.1 µM (active)
- EC50 [9]: 0.038 µM (active)
- EC50 [10]: > 60 µM (not active)

SMILES: O=C(Cn1cnc2ccccc21)N/N=C/c1cccs1
- IC50 [11]: > 29.9 µM (inactive)
- EC50 [12]: > 29.9 µM (inactive)

SMILES: CC(C)N1C(=O)/C(=C/c2nc3ccccc3c(=O)n2-c2ccccc2)c2ccccc21
- EC50 [8]: 0.997 µM (active)
- CC50 [7]: 27.3 µM (active)

SMILES: C[C@H](CO)N1C[C@H](C)[C@H](CN(C)C(=O)c2cc(Cl)cc(Cl)c2)OCc2ccccc2-c2c(n(C)c3ccccc23)C1=O
- AC50 [13]: 4.11 µM (active)
- AC50 [14]: > 39 µM (inactive)

SMILES: COc1cc(-c2cnc3c(NC=O)cc(-c4cccc(C(=O)NCCN(C)C)c4)cn23)cc(OC)c1OC
- AC50 [15]: 8.57 µM (active)
- AC50 [16]: 3.07 µM (active)

SMILES: CC(C)CC#Cc1ccc([C@H]2[C@H](CO)N3CCCCN(S(=O)(=O)Cc4ccccc4)C[C@@H]23)cc1
- AC50 [13]: 4.8 µM (active)
- AC50 [14]: 9.45 µM (active)
